Assay results published in patent US20030170310A1, “Tasteless, directly compressible, fast-dissolving complexes and pharmaceutical formulations thereof” (priority 2002, published 2003).

Test: PH of drug and complex
Type: physicochemical

In the case of CC(C)(C(=O)O)c1ccc(C(O)CCCN2CCC(C(O)(c3ccccc3)c3ccccc3)CC2)cc1.Cl (racemic) [Fexofenadine Hydrochloride, (±)-4-[1-hydroxy-4-[4-(hydroxydiphenylmethyl)-1-piperidinyl]-butyl]-α,α-dimethylbenzene acetic acid hydrochloride], the PH is reported as 2.25-2.75.
